From patent publication EP4417602A1, “SUBSTITUTED PYRAZOLE CARBOXAMIDES, SALTS THEREOF AND THEIR USE AS HERBICIDALLY ACTIVE SUBSTANCES” (Bayer AG, priority 2023, dated 2024)

Assays:
LOLRI = assay: A. Herbicidal pre-emergence action on harmful plants (Tables A); assay type: in vivo, Lolium rigidum; settings: visual grading after ca. 3 weeks vs untreated controls, 100% = plants have died off, 0% = as control plants
Summary of the method: (§1)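 Greenhouse pre-emergence test: compound applied to the soil surface at 1280 g/ha or below, and herbicidal effect rated visually at ca. 3 weeks on a 0–100% scale against untreated plants.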

MATIN = assay: as above; assay type: in vivo, Matricaria inodora; settings: visual grading after ca. 3 weeks vs untreated controls, 100% = plants have died off, 0% = as control plants
Summary of the method: as §1

SETVI = assay: as above; assay type: in vivo, Setaria viridis; settings: visual grading after ca. 3 weeks vs untreated controls, 100% = plants have died off, 0% = as control plants
Summary of the method: as §1

POAAN = assay: B. Herbicidal post-emergence action on harmful plants (Tables B); assay type: in vivo, Poa annua; settings: application rate 1280 g/ha; Table B7a
Summary of the method: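 Activity was scored visually as % damage (100% = dead, 0% = like untreated) about 3 weeks after treatment. Plants at the one-leaf stage, 2-3 weeks old, were sprayed with WP/EC formulations plus 0.5% additive (600 L/ha water, up to 1280 g/ha). Plants were grown in sandy loam in a greenhouse.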

DIGSA = assay: C. Herbicidal pre-emergence action, weed and crop plants (Tables C); assay type: in vivo, Digitaria sanguinalis
Excerpt: Seeds of mono- and dicotyledonous weed plants and crop plants were sown, in plastic or organic planting pots, in sandy loam and covered with soil. The compounds according to the invention, formulated in the form of wettable powders (WP) or as emulsifiable concentrates (EC), were applied to the surface of the covering soil as aqueous suspension or emulsion, with the addition of 0.5% of an additive, at an application rate of 6001 of water/ha (converted). Following treatment, the pots were placed in a greenhouse and kept under optimum growth conditions for the test plants. The visual grading of the damage to the test plants was carried out after ca. 3 weeks in comparison to untreated controls (herbicidal effect in percent (%): 100% effect = plants have died off, 0% effect = as control plants). Tables C1 to C12 below show the effects of selected compounds of the general formula (I) according to table 1 on various harmful plants and an application rate corresponding to 320 g/ha or below obtained by the experimental procedure mentioned above. Table C1: pre-emergence activity at 320g/ha against KCHSC in %

VIOTR = assay: as above; assay type: in vivo, Viola tricolor; settings: application rate 320 g/ha; Table C12a
Summary of the method: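 Seeds were sown in sandy loam and covered with soil. WP or EC formulations were sprayed onto the soil surface as aqueous suspension or emulsion with 0.5% additive, at rates of 320 g/ha or below. Plants were kept in a greenhouse, and damage was scored visually after about 3 weeks as % effect versus untreated controls (100% = dead, 0% = like control).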

GLXMA [1] = assay: D. Pre-emergence effects on crop plants (Tables D); assay type: in vivo, Glycine max; settings: crop plant
Summary of the method: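 Pre-emergence soil-surface treatment at 320 g/ha or lower, using wettable-powder or emulsifiable-concentrate formulations in water plus 0.5% additive, over freshly sown seeds in covered sandy loam. Damage was rated visually as percent versus untreated pots (100% = dead plants) after about 3 weeks of greenhouse growth.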

TRZAS = assay: F. Post-emergence effects on crop plants (Tables F); assay type: in vivo, Triticum aestivum; settings: crop plant
Summary of the method: (§2)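 Plants were grown in sandy loam in a greenhouse and sprayed post-emergence at the single-leaf stage, 2–3 weeks after sowing. Visual damage was scored after ca. 3 weeks against untreated controls (0% = as control, 100% = dead).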

GLXMA [2] = assay: as above; assay type: in vivo, Glycine max; settings: crop plant
Summary of the method: as §2

STEME = assay: A. Herbicidal pre-emergence action on harmful plants (Tables A); assay type: in vivo, Stellaria media; settings: visual grading after ca. 3 weeks vs untreated controls, 100% = plants have died off, 0% = as control plants
Summary of the method: as §1

[3] = application rate 320 g/ha, Table C5a
[4] = application rate 80 g/ha, Table D4b
[5] = application rate 80 g/ha, Table C5b

| SMILES | pre-emergence activity against GLXMA (GLXMA [1]; [4]) [%] | pre-emergence activity against GLXMA (GLXMA [1]; application rate 320 g/ha, Table D4a) [%] | pre-emergence activity against LOLRI (LOLRI; application rate 320 g/ha) [%] | pre-emergence activity against LOLRI (LOLRI; application rate 1280 g/ha) [%] | pre-emergence activity against MATIN (MATIN; application rate 1280 g/ha) [%] | pre-emergence activity against SETVI (SETVI; application rate 320 g/ha) [%] | pre-emergence activity against SETVI (SETVI; application rate 1280 g/ha) [%] | post-emergence activity against POAAN (POAAN) [%] | pre-emergence activity against DIGSA (DIGSA; [3]) [%] | pre-emergence activity against VIOTR (VIOTR) [%] | post-emergence activity against TRZAS in % (TRZAS; application rate 80 g/ha) [%] | post-emergence activity against TRZAS in % (TRZAS; application rate 320 g/ha) [%] | post-emergence activity against GLXMA in % (GLXMA [2]; application rate 320 g/ha) [%] | pre-emergence activity against STEME (STEME; application rate 1280 g/ha) [%] | pre-emergence activity against STEME (STEME; application rate 320 g/ha) [%] | pre-emergence activity against DIGSA (DIGSA; [5]) [%] | post-emergence activity against GLXMA in % (GLXMA [2]; application rate 80 g/ha) [%] | pre-emergence activity against LOLRI (LOLRI; application rate 80 g/ha) [%] | pre-emergence activity against MATIN (MATIN; application rate 320 g/ha) [%] |
| --- | --- | --- | --- | --- | --- | --- | --- | --- | --- | --- | --- | --- | --- | --- | --- | --- | --- | --- | --- |
| COCc1nn2c(c1C(=O)N1CCCC1Cc1ccccc1F)CCC2 (racemic) [Example I-022] | 0 | 0 | 100 | 100 | 90 | 90 | 90 | 90 | 90 | 80 | 0 | 0 | 0 |  |  |  |  |  |  |
| Cn1cc(C(=O)N2CCCC2Cc2ccccc2F)c(COc2ccccc2)n1 (racemic) [Example I-006] |  |  |  | 90 | 90 |  |  | 90 | 100 |  | 20 | 20 |  | 90 | 90 |  | 0 |  |  |
| COCc1nn(C)cc1C(=O)N1CCCC1Cc1ccccc1F (racemic) [Example I-002] |  |  | 90 | 100 | 90 | 90 | 90 | 90 | 90 | 80 |  |  |  | 90 |  | 90 | 20 | 90 | 90 |

Continued, in another order:

| pre-emergence activity against GLXMA (GLXMA [1]; [4]) [%] | pre-emergence activity against GLXMA (GLXMA [1]; application rate 320 g/ha, Table D4a) [%] | SMILES | pre-emergence activity against LOLRI (LOLRI; application rate 320 g/ha) [%] | pre-emergence activity against LOLRI (LOLRI; application rate 1280 g/ha) [%] | pre-emergence activity against MATIN (MATIN; application rate 1280 g/ha) [%] | pre-emergence activity against SETVI (SETVI; application rate 320 g/ha) [%] | pre-emergence activity against SETVI (SETVI; application rate 1280 g/ha) [%] | post-emergence activity against POAAN (POAAN) [%] | pre-emergence activity against DIGSA (DIGSA; [3]) [%] | pre-emergence activity against VIOTR (VIOTR) [%] | post-emergence activity against TRZAS in % (TRZAS; application rate 80 g/ha) [%] | post-emergence activity against TRZAS in % (TRZAS; application rate 320 g/ha) [%] | post-emergence activity against GLXMA in % (GLXMA [2]; application rate 320 g/ha) [%] | pre-emergence activity against STEME (STEME; application rate 1280 g/ha) [%] | pre-emergence activity against STEME (STEME; application rate 320 g/ha) [%] | pre-emergence activity against DIGSA (DIGSA; [5]) [%] | post-emergence activity against GLXMA in % (GLXMA [2]; application rate 80 g/ha) [%] | pre-emergence activity against LOLRI (LOLRI; application rate 80 g/ha) [%] | pre-emergence activity against MATIN (MATIN; application rate 320 g/ha) [%] |
| --- | --- | --- | --- | --- | --- | --- | --- | --- | --- | --- | --- | --- | --- | --- | --- | --- | --- | --- | --- |
| 20 |  | Cn1cc(C(=O)N2CCCC2Cc2ccc(F)cc2F)c(COc2ccccc2)n1 (racemic) [Example I-008] |  |  | 90 |  | 90 | 90 | 90 | 90 | 20 | 20 | 0 | 90 |  |  |  |  |  |
| 0 |  | COCc1nn(C(=O)OC(C)(C)C)cc1C(=O)N1CCCC1Cc1ccccc1F (racemic) [Example I-040] | 90 | 100 | 90 | 90 | 90 |  | 90 |  |  |  |  | 90 | 90 | 80 | 0 |  |  |
